Laboratory results taken from ChEMBL document CHEMBL1147684, “Nitrogen-bridged substituted 8-arylquinolines as potent PDE IV inhibitors” (Bioorg Med Chem Lett, 2006).

Legend:
[1] = molecular target: 3',5'-cyclic-AMP phosphodiesterase 4A (Homo sapiens, UniProt P27815); assay: Inhibition of human GST-PDE4A
[2] = molecular target: T1, 3',5'-cyclic-AMP phosphodiesterase 4B (Homo sapiens, UniProt Q07343); assay: Ability to block TNFalpha release through inhibition of PDE4 in LPS-stimulated human whole blood; type: functional, tissue-based
[3] = molecular target: T1, 3',5'-cyclic-AMP phosphodiesterase 4B; assay: Inhibition of human GST-PDE4B
[4] = molecular target: 3',5'-cyclic-AMP phosphodiesterase 4C (Homo sapiens, UniProt Q08493); assay: Inhibition of human GST-PDE4C
[5] = molecular target: 3',5'-cyclic-AMP phosphodiesterase 4D (Homo sapiens, UniProt Q08499); assay: Inhibition of human GST-PDE4D
[6] = Half life in iv dosed rat; type: ADME, organism-based; conditions: in vivo
[7] = Half life in iv dosed squirrel monkey; type: ADME, organism-based, Saimiri sciureus; conditions: in vivo
[8] = Oral bioavailability in rat; type: ADME, organism-based; conditions: in vivo
[9] = Oral bioavailability in squirrel monkey; type: ADME, organism-based, Saimiri sciureus; conditions: in vivo
[10] = Cmax in rat; type: ADME, organism-based; conditions: in vivo
[11] = Cmax in squirrel monkey; type: ADME, organism-based, Saimiri sciureus; conditions: in vivo
[12] = tested on: Cavia porcellus; assay: Inhibition of ovalbumin-induced bronchoconstriction in guinea pig at 30 ug/kg, ip; type: functional
[13] = tested on: Cavia porcellus; assay: Inhibition of ovalbumin-induced bronchoconstriction in guinea pig at 1 mg/kg, ip; type: functional; conditions: route intraperitoneal

T1 sequence (Q07343 whole entry): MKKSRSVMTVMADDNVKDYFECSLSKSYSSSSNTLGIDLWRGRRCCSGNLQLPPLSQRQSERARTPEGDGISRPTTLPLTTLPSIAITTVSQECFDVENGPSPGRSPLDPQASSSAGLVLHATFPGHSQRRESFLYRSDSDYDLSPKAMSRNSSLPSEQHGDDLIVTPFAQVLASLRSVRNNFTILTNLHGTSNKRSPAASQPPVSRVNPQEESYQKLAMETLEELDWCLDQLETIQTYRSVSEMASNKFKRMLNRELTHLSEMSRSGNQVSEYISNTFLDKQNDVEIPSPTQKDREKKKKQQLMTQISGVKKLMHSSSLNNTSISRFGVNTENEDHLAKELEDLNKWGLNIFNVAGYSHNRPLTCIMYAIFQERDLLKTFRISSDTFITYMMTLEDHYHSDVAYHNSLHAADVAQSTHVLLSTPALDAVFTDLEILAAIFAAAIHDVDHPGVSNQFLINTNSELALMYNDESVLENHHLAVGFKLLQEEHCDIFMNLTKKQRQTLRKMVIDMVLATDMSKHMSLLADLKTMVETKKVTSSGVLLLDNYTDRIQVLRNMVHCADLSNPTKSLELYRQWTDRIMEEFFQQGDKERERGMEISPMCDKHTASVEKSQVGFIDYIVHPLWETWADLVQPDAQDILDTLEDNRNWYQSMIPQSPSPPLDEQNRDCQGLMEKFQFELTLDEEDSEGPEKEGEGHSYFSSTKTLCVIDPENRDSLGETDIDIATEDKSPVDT
Sequence of 3',5'-cyclic-AMP phosphodiesterase 4C (Q08493 whole entry): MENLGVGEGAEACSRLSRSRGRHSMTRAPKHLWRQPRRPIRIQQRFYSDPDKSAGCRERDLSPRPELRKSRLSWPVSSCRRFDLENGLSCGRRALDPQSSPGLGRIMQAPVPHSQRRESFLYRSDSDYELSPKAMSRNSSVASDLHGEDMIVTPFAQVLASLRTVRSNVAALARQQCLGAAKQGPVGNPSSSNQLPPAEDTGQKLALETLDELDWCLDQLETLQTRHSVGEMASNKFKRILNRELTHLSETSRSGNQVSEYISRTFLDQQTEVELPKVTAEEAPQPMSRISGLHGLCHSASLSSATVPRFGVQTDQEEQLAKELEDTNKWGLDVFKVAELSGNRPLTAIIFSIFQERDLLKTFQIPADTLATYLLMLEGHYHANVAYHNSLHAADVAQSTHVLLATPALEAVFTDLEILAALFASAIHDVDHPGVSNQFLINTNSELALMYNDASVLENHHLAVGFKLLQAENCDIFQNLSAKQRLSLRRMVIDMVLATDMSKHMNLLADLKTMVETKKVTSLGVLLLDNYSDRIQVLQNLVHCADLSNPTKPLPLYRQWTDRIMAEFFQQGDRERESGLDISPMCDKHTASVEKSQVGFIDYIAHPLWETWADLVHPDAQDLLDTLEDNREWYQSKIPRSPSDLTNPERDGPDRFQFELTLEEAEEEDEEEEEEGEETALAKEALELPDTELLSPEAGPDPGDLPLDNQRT
Sequence of 3',5'-cyclic-AMP phosphodiesterase 4D (Q08499 whole entry): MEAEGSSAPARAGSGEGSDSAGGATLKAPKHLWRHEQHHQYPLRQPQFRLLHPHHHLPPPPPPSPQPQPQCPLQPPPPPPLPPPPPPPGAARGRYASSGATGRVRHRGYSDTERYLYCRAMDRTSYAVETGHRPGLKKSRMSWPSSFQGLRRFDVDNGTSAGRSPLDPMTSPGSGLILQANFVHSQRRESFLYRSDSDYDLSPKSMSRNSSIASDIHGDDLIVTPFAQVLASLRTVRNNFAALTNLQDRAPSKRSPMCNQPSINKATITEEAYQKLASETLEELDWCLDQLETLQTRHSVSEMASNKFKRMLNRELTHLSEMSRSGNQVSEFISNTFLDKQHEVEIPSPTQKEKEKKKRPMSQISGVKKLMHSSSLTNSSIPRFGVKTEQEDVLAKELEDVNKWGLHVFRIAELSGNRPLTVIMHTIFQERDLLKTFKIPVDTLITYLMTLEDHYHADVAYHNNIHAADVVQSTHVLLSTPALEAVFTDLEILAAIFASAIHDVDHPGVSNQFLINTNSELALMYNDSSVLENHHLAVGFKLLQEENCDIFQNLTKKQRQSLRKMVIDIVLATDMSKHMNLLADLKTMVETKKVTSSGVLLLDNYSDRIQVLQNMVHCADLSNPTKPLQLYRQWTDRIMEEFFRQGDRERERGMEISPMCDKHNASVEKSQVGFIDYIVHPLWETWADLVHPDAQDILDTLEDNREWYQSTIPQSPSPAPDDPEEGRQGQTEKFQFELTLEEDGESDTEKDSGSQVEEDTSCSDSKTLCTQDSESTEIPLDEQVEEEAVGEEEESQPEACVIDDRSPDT
Sequence of 3',5'-cyclic-AMP phosphodiesterase 4A (P27815 whole entry): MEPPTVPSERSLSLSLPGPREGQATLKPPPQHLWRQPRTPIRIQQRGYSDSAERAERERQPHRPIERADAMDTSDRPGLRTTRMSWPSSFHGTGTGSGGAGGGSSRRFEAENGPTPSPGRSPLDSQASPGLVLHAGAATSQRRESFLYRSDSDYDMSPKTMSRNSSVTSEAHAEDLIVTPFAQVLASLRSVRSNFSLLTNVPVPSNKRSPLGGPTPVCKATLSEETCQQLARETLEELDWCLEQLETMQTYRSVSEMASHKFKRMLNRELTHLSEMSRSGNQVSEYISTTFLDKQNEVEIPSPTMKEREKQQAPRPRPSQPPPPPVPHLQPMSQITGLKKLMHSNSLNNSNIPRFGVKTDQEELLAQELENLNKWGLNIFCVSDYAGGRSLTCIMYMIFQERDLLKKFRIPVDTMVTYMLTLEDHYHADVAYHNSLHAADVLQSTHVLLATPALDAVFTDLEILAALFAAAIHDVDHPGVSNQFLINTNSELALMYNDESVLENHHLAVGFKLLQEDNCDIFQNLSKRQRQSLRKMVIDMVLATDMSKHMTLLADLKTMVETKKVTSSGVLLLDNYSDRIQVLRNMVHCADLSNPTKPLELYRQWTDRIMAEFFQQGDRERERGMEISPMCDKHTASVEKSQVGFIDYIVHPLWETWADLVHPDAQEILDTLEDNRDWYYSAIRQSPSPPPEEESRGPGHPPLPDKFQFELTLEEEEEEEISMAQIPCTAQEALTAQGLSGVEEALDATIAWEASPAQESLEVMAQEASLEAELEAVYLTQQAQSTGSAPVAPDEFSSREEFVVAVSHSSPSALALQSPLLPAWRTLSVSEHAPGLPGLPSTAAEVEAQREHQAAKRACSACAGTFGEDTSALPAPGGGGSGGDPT

SMILES	IC50 [1] [nM]	IC50 [2] [nM]	IC50 [3] [nM]	IC50 [4] [nM]	IC50 [5] [nM]	half-life [6] [h]	half-life [7] [h]	bioavailability [8] [%]	bioavailability [9] [%]	Cmax [10] [nM]	Cmax [11] [nM]	inhibition in vivo at 0.03 mg/kg [12] [%]	inhibition in vivo at 1 mg/kg [13] [%]
CC(=O)N(c1ccc(S(C)(=O)=O)cc1)C(C)c1cccc(-c2cc(C(C)(C)S(C)(=O)=O)cc3cccnc23)c1 (configuration not stated)	10	2000	4.2	41	6.7								
CC(c1cccc(-c2cc(C(C)(C)S(C)(=O)=O)cc3cccnc23)c1)N(C(=O)c1cccnc1)c1ccc(S(C)(=O)=O)cc1 (configuration not stated)	2.1	210	0.7	14	1.7								
Cc1cc(C(=O)N(Cc2cccc(-c3cc(C(C)(C)C#N)cc4cccnc34)c2)c2ccc(S(C)(=O)=O)cc2)no1	0.3	30	0.1	0.9	0.1								
CC(C)NC(=O)N(Cc1cc(-c2cc(C(C)(C)S(C)(=O)=O)cc3cccnc23)ccc1Cl)c1ccc(S(C)(=O)=O)cc1	15	4000	4.4	70	10								
CC(C)NC(=O)N(c1ccc(S(C)(=O)=O)cc1)C(C)c1cccc(-c2cc(C(C)(C)S(C)(=O)=O)cc3cccnc23)c1 (configuration not stated)	1.8	400	0.7	25	1.9								
CC(C)(c1cc(-c2cccc(C(=O)Nc3ccccc3)c2)c2ncccc2c1)S(C)(=O)=O	16	7000	5.9	97	10								
CC(C)(c1cc(-c2cccc(C(=O)Nc3c(Cl)cncc3Cl)c2)c2ncccc2c1)S(C)(=O)=O	0.6	90	0.4	5.5	0.7								
CC(C)NC(=O)N(Cc1cc(-c2cc(C(C)(C)S(C)(=O)=O)cc3cccnc23)ccc1F)c1ccc(S(C)(=O)=O)cc1	0.6	50	0.3	6.4	0.8								
CC(C)(c1cc(-c2cccc(C(=O)Nc3ccc(S(C)(=O)=O)cc3)c2)c2ncccc2c1)S(C)(=O)=O	3.5	140	0.5	26	2.8								
CC(C)(c1cc(-c2cccc(NC(=O)c3ccc(S(C)(=O)=O)cc3)c2)c2ncccc2c1)S(C)(=O)=O	1.7	1000	1.2	10.6	2.3								
CC(C)OC(=O)N(Cc1cccc(-c2cc(C(C)(C)C#N)cc3cccnc23)c1)c1ccc(S(C)(=O)=O)cc1	0.3	80	0.3	4.2	0.3								
CC(C)(c1cc(-c2cccc(C(N)=O)c2)c2ncccc2c1)S(C)(=O)=O	78		40	490	74								
CC(C)NC(=O)N(Cc1cccc(-c2cc(C(C)(C)S(C)(=O)=O)cc3cccnc23)c1)c1ccc(S(C)(=O)=O)cc1	0.1	100	0.1	1.7	0.1								
CC(C)(C#N)c1cc(-c2cccc(CN(Cc3ccc(F)cc3)c3ccc(S(C)(=O)=O)cc3)c2)c2ncccc2c1	1	1800	0.1	9.5	0.5								
CC(c1cccc(-c2cc(C(C)(C)S(C)(=O)=O)cc3cccnc23)c1)N(C(=O)C1CC1)c1ccc(S(C)(=O)=O)cc1 (configuration not stated)	1.6	800	0.6	17	1.4								
CC(C)(C#N)c1cc(-c2cccc(CN(C(=O)Nc3ccccc3)c3ccc(S(C)(=O)=O)cc3)c2)c2ncccc2c1	0.1	40	0.03	0.05	0.1								
CC(c1cccc(-c2cc(C(C)(C)S(C)(=O)=O)cc3cccnc23)c1)N(C(=O)c1ccc(C(C)(C)O)cc1)c1ccc(S(C)(=O)=O)cc1 (configuration not stated)	1.5	270	0.4	5.9	0.5								
CC(C)NC(=O)N(Cc1cccc(-c2cc(C(C)(C)C#N)cc3cccnc23)c1)c1ccc(S(C)(=O)=O)cc1	0.1	140	0.1	1.7	0.1								
CC(C)(C#N)c1cc(-c2cccc(CN(C(=O)c3ccccc3)c3ccc(S(C)(=O)=O)cc3)c2)c2ncccc2c1	0.2	80	0.1	1	0.3								
CC(C)(c1cc(-c2cccc(C(=O)Nc3ccncc3)c2)c2ncccc2c1)S(C)(=O)=O	3.1	200	0.9	17	3								
CC(c1cccc(-c2cc(C(C)(C)S(C)(=O)=O)cc3cccnc23)c1)N(C(=O)c1ccc(F)cc1)c1ccc(S(C)(=O)=O)cc1 (racemic)	2.3	560	0.6	12	1.8	2	7	67	98	2700	900	74	
CC(c1cccc(-c2cc(C(C)(C)S(C)(=O)=O)cc3cccnc23)c1)N(C(=O)c1ccc(F)cc1)c1ccc(S(C)(=O)=O)cc1 (single isomer, unassigned; enantiomer A)	15	1400	5.8	51	7								
CC(c1cccc(-c2cc(C(C)(C)S(C)(=O)=O)cc3cccnc23)c1)N(C(=O)c1ccc(F)cc1)c1ccc(S(C)(=O)=O)cc1 (single isomer, unassigned; enantiomer B)	1.8	250	0.5	7.5	0.7								
COc1ccc([C@H](Cc2ccncc2)c2ccccc2)cc1OC1CCCC1 [CDP840]													55
